Reference: patent US20230256095A1, “DYES FOR USE IN A METHOD OF TREATMENT OF VITREOUS OPACITY-RELATED DISEASES” (UNIVERSITEIT GENT, priority 2020, published 2023)

Columns and labels:
type I collagen fibers = biological target: T1, type I collagen fibers (Rattus norvegicus, UniProt P02454+P02466); assay: Photo-ablation of artificial floaters with nanosecond laser
T1 construct: type I collagen from the rat tail; purchased GIBCO; host or cells: rat tail (tissue-derived)
Description: Collagen fibers were prepared from type I collagen from the rat tail (GIBCO; concentration of 3 mg/ml) as described in Sauvage et al., 2019, ACS Nano, 13, 8401-8416. 5 ml of PBS was pipetted in a 15 ml falcon tube. 330 μL of the PBS solution was replaced by 330 μL collagen type I and the solution was vortexed. Sodium hydroxide (0.1 M) (VWR, Radnor, USA) was added to the acid solution of collagen to adjust pH to 7.4. The solution was vortexed again and placed for one hour in the incubator at 37° C. The final concentration of the collagen was 0.2 mg/ml.
First, dark-field microscopy imaging was performed to locate and align the nanosecond laser (Opolette HE 355 LD, OPOTEK Inc., CA, USA) on the artificial collagen fibers in the sample. Samples of either artificial or human opacities treated with TB, ICG and ICG nanoparticles were then illuminated with the laser (<7 ns). The wavelength of the laser light was 561 nm and the energy was set at ±800 μJ. A beam expander (#GBE05-A, Thorlabs) combined with iris diaphragm (#D37SZ, Thorlabs) were used to adjust the diameter of the laser beam to 150 μm (so that 800 μJ corresponded to a laser fluence of 4.5 J/cm^2). The laser pulse energy was monitored by an energy meter (J-25 MB-HE&LE, Energy Max-USB/RS sensors, Coherent) synchronized with the pulsed-laser. The set-up was made in such way to illuminate the sample shot by shot. Videos of the sample were made during illumination with NIS software. Same experiments were performed with human opacities Comparison Between Free ICG, PAH-ICG NPs and HSA-ICG NPs in Water and Bovine Vitreous.

human vitreous opacities = assay: Photo-ablation of human vitreous opacities obtained after vitrectomy; details: 0.5 mg/ml
collagen fibers [1] = biological target: T2, collagen fibers (Rattus norvegicus, UniProt P02454+P02466); assay: In vivo binding of intravitreally injected ICG to collagen fibers (PAM/OCT/fundus imaging); parameters: species or system rabbit
T2 construct: host or cells: exogenous fibres injected into the vitreous of New Zealand White rabbits
Source text: A total of 24 New Zealand White rabbits (age 3-6 months; weight 2.45-3.15 kg; both genders) were used. The rabbits were randomly divided into 7 groups: a control group A treated with laser only (n=3), group B received an intravitreal (IVIT) injection of ICG (n=9), group C received an IVIT injection of ICG labeled collagen fibers (n=3), group D was IVIT injected with collagen fibers followed by an IVIT injection of ICG (n=3), group E was IVIT injected with HA-AuNPs labeled floaters (n=3), and group F was IVIT injected with floaters followed by an IVIT injection of HA-AuNPs (n=3). During the in vivo experiments, animal conditions such as mucous membrane color, heart rate, body heat, and respiratory rate were monitored every 15 minutes. […]
(§1) First, to visualize the retina of the rabbit eyes, a plastic contact lens was placed on the cornea. […] The position of the fibers was monitored by OCT so that the intravitreal injection of ICG could be performed close the area where the fibers were located. […]
The rabbits were monitored one minute after intravitreal injection of the collagen fibers and at day 4 post intravitreal injection of ICG. […] The rabbit eyes were assessed by color fundus photography, fluorescence imaging, optical coherence tomography (OCT) and photoacoustic microscopy (PAM), as discussed below. […]

[2] = In vivo clearance of intravitreally injected ICG from the vitreous (fundus imaging); parameters: species or system rabbit
Source text: (§2) A total of 24 New Zealand White rabbits (age 3-6 months; weight 2.45-3.15 kg; both genders) were used. The rabbits were randomly divided into 7 groups: a control group A treated with laser only (n=3), group B received an intravitreal (IVIT) injection of ICG (n=9), group C received an IVIT injection of ICG labeled collagen fibers (n=3), group D was IVIT injected with collagen fibers followed by an IVIT injection of ICG (n=3), group E was IVIT injected with HA-AuNPs labeled floaters (n=3), and group F was IVIT injected with floaters followed by an IVIT injection of HA-AuNPs (n=3). During the in vivo experiments, animal conditions such as mucous membrane color, heart rate, body heat, and respiratory rate were monitored every 15 minutes. The animals were anesthetized by intramuscular injection of ketamine (40 mg/kg) and xylazine (5 mg/kg). A drop of tropicamide (1%) and phenylephrine hydrochloride (2.5%) was applied into the rabbit eyes to dilate their pupils at 15 min before the imaging procedures. For topical anaesthesia, a drop of topical tetracaine (0.5%) was used. To avoid corneal dehydration during the experiment, a lubricant solution (Systane, Alcon Inc., TX, USA) was added into the eye every minute using a syringe with plastic needle. To maintain the anaesthesia, a dose of ketamine (13 mg/kg) was injected every 45 min. The animal's body heat was maintained using a circulation heat blanket.
First, to visualize the retina of the rabbit eyes, a plastic contact lens was placed on the cornea. When the target location in the vitreous was selected under the microscope, the rabbits under anaesthesia were subsequently intravitreally injected. The intravitreal injections were performed using a 27 gauge needle. In one series of experiments 40 μL of ICG-fibers (which are collagen fibers treated with ICG) was injected; the concentration of collagen in the dispersions was 0.02 mg/mL. In another series of experiments, 40 μL of collagen fibers (0.02 mg/mL) were intravitreally injected. 5 days after the injection of the fibers, ICG (0.25-1.25 mg/ml) was injected in the vitreous (40 μl). The position of the fibers was monitored by OCT so that the intravitreal injection of ICG could be performed close the area where the fibers were located. Three days after the injection of ICG, laser treatment was performed.
The rabbits were monitored one minute after intravitreal injection of the collagen fibers and at day 4 post intravitreal injection of ICG. Rabbits intravitreally injected with ICG only were followed up for 14 days post injection. The rabbit eyes were assessed by color fundus photography, fluorescence imaging, optical coherence tomography (OCT) and photoacoustic microscopy (PAM), as discussed below. The rabbit's head and body were positioned in two different platforms to minimize breathing and other motion artifacts. The same scanning areas for PAM- and OCT-imaging were monitored by the fundus camera which was integrated in the OCT system. To detect the photoacoustic signal, the ultrasound transducer was placed in contact with the conjunctiva, allowing it to move freely in 3D while not applying any physical pressure on the rabbit eyes. […]
Color fundus photography was performed using a 50-degree color fundus photography system (Topcon 50EX, Topcon Corporation, Tokyo, Japan). […] Fluorescence imaging was done with the Topcon 50EX system using appropriate excitation and emission filters.

[3] = tested on: immortalized human Müller cells (MIO-M1); assay: MTT toxicity assay on Müller cells; assay type: cell-based
Description: MIO-M1 cells were cultured in DMEM Glutamax medium (Thermo Fisher Scientific, Waltham, USA). The medium contained 10% foetal bovine serum (FBS) (Thermo Fisher Scientific, Waltham, USA), 100 IU/ml penicillin (Gibco®-Invitrogen life technologies, Walthan, USA), 100 μg/ml streptomycin (Gibco®-Invitrogen life technologies, Walthan, USA) and 2 mM L-Glutamin (Gibco®-Invitrogen life technologies, Walthan, USA). Before use, the medium was passed through a 0.2 μm PES membrane vacuum filter (VWR, Radnor, USA). The cells were plated in polystyrene cell culture flasks (surface=75 cm^2) (VWR, Radnor, USA) and placed in the incubator (37° C., 5% CO2) (Thermo Fisher Scientific, Waltham, USA) until confluence was reached (i.e. the cells forming a monolayer covering 80%-90% of the culture flask). The morphology was checked by microscopy (VWR, Radnor, USA). After reaching the confluence (more or less after 5 days) and checking the morphology, cells were split in new culture flasks. […]
To test the toxicity of free and nano-encapsulated ICG, we wanted to seed 7,000 Müller cells in each well of a 96-well plate (VWR, Radnor, USA). The cells were counted with a Bürker counting chamber (BRAND, Wertheim, Germany) to obtain the proper number of cells. […] The non-coloured cells were counted in 6 big squares (3 on each side of the chamber); each big square contained 0.1 μL mixture. […]

collagen fibers [4] = biological target: T2, collagen fibers; assay: In vivo laser photo-ablation of intravitreally injected collagen fibers; parameters: species or system rabbit
Source text: as §2
as §1, with “cornea. When the target location in the vitreous was selected under the microscope, the rabbits under anaesthesia were subsequently intravitreally injected. The intravitreal injections were performed using a 27 gauge needle.” for “cornea.”
Before laser treatment, the rabbit's eyes were imaged by PAM and OCT (see section above). […] Also, rabbit's vital signs were monitored and recorded until the animals fully recovered from anaesthesia.

[5] = In vivo safety evaluation of treated eyes; parameters: species or system rabbit
Source text: Before laser treatment, the rabbit's eyes were imaged by PAM and OCT (see section above). For laser treatment, anesthetized rabbits were kept on a custom-built stabilization platform. After acquiring the images and locating the opacities (collagen fibers) by OCT, areas in the eyes (4.5×4.5 mm^2) were illuminated with laser pulses (<7 ns; 1.9 J/cm^2) NT-242, Ekspla, Lithuania) of 800 nm (ICG) to destroy the collagen fibers; the step size of the scanning laser was 9 μm, the beam size equaled 20 μm. During the treatment, real-time OCT was active to monitor the position of the collagen fibers. The 4.5×4.5 mm^2 area was laser scanned several times (3-7 times) until the collagen fibers were completely destroyed. After the laser treatment, PAM and fundus images were performed to evaluate the potential damage of retinal vessels. Also, rabbit's vital signs were monitored and recorded until the animals fully recovered from anaesthesia.
Treated eyes were ophthalmologically evaluated immediately after the laser treatment and followed up for 1 month. Anterior segment structures such as the eyelids, iris, conjunctiva, cornea, anterior chamber and lens were comprehensively examined using slit lamp bio-microscopy (SL120, Carl Zeiss, Germany). In addition, posterior segment structures (i.e., the vitreous, optic nerve and retina) were assessed using a contact fundus lens (Volk Optical Inc, Mentor, Ohio, USA).

[6] = eyes treated with laser with ICG

T1 sequence (P02454 152-1207 limits assumed): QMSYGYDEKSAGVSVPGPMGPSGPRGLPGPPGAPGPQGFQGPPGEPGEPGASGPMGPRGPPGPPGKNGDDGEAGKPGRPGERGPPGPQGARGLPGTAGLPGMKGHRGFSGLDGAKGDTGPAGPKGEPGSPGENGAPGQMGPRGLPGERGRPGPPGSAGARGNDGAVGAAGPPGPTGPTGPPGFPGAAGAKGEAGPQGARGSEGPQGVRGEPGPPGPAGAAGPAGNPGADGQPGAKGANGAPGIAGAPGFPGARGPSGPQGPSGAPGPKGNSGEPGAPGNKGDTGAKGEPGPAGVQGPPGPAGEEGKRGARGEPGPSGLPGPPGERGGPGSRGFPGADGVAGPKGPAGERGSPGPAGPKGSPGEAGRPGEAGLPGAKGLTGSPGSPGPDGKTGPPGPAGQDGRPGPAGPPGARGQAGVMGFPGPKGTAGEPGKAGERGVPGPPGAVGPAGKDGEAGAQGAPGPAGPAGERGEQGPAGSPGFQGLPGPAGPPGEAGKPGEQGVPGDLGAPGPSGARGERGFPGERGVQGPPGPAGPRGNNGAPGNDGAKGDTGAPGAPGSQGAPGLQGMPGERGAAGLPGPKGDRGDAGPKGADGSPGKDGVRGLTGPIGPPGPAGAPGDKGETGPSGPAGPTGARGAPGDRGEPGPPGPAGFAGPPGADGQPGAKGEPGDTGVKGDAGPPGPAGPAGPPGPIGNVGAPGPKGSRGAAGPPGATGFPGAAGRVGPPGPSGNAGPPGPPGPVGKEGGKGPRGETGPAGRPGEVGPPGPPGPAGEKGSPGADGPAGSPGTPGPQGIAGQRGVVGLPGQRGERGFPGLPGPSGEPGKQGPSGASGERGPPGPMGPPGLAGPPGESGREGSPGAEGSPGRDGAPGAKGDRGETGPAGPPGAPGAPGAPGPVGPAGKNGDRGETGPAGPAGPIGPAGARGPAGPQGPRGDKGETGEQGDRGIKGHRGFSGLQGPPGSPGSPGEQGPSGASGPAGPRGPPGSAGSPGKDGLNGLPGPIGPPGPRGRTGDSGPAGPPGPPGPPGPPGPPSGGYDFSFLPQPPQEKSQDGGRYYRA
T1 sequence (P02466 86-1125 limits assumed): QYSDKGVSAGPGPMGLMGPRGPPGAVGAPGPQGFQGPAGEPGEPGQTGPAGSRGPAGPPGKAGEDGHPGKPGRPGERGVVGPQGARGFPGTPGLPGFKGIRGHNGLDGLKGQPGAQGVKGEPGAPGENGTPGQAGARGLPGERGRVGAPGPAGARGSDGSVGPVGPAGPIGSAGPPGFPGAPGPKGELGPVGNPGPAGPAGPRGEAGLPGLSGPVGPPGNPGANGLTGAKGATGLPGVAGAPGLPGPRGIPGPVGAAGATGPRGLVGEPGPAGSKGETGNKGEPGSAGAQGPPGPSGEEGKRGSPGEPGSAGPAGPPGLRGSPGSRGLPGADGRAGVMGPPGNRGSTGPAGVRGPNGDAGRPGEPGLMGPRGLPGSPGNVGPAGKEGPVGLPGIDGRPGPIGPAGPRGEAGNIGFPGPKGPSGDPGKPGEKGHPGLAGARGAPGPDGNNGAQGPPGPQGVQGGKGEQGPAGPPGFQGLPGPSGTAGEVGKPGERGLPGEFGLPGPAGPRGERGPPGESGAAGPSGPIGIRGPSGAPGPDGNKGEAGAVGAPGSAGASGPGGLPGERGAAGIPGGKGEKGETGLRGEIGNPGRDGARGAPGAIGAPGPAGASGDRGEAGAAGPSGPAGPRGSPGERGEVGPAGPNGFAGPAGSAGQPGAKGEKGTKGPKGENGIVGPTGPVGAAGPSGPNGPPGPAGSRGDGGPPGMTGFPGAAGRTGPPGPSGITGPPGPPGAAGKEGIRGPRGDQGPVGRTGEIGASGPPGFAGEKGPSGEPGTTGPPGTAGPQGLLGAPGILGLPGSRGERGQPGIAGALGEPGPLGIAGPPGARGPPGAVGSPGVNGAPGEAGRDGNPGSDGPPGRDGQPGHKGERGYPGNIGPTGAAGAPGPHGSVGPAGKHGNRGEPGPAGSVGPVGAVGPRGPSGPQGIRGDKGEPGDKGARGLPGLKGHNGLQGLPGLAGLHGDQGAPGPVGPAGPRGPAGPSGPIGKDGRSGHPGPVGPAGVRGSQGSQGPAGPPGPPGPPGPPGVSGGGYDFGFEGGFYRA
T2 sequence (P02454 152-1207 limits assumed): as the sequence (P02454 152-1207 limits assumed) above
T2 sequence (P02466 86-1125 limits assumed): as the sequence (P02466 86-1125 limits assumed) above

## Cc1cc(-c2ccc(/N=N/c3c(S(=O)(=O)O)cc4cc(S(=O)(=O)O)cc(N)c4c3O)c(C)c2)ccc1/N=N/c1c(S(=O)(=O)O)cc2cc(S(=O)(=O)O)cc(N)c2c1O [free TB, Trypan Blue]
Type I collagen fibers; 0.1 mg/ml as printed
  binding and destruction of type I collagen fibers: can bind and efficiently destroy type I collagen fibers

## CC1(C)C(/C=C/C=C/C=C/C=C2\N(CCCCS(=O)(=O)O)c3ccc4ccccc4c3C2(C)C)=[N+](CCCCS(=O)(=O)[O-])c2ccc3ccccc3c21 [ICG, Indocyanine Green]
Human vitreous opacities; 561 nm, 4.5 J/cm^2
  destruction of human vitreous opacity: the vitreous opacity could be destroyed
Human vitreous opacities; 800 nm, 1.1 J/cm^2
  destruction of human vitreous opacity: the vitreous opacity could be destroyed
Collagen fibers [1]; IVIT 1.25 mg/mL, 5 days after fiber injection
  reaching and binding of collagen fibers in vivo: could reach and bind the collagen fibers
Collagen fibers [1]; intravitreal injection
  lowest concentration at which binding to collagen fibers was still observed in vivo: 0.625 mg/mL
[2]; 0.25 mg/ml IVIT
  visibility of ICG 7 days after injection: no longer visible at the level of the collagen fibers
[2]; 0.625 mg/ml IVIT
  visibility of ICG 7 days after injection: remained only visible at the level of the collagen fibers
[2]; 1.25 mg/ml IVIT
  visibility of ICG 7 days after injection: remained only visible at the level of the collagen fibers
[2]; 3 days post injection, all concentrations
  visibility of 'free' ICG (not bound to collagen) in vitreous cavity: no longer visible in the vitreous cavity
[2]; after one day, 0.25, 0.625 and 1.25 mg/ml IVIT
  visibility of injected ICG in vitreous: most of the injected ICG was no longer visible
Type I collagen fibers; 0.5 mg/ml
  binding and destruction of type I collagen fibers: can bind and efficiently destroy type I collagen fibers
Type I collagen fibers; nanosecond laser 4.5 J/cm^2
  location of VNBs during laser pulse on fiber: VNBs could be observed at the level of the fiber
[3]; 0.5 mg/ml
  toxicity on immortalized human retinal cells (MIO-M1): no clear toxicity
[3]; 24 hours, 0.1-1 mg/ml
  toxicity / metabolic activity (MTT): rather acceptable toxicity up to a concentration of 0.5 mg/ml
Collagen fibers [4]; IVIT 0.625 mg/mL, 800 nm, 1.9 J/cm^2
  destruction of collagen fibers in vivo: complete destruction of the collagen fibers
Collagen fibers [4]; IVIT 1.25 mg/mL, 800 nm, 1.9 J/cm^2, 3 days after ICG
  laser pulses (scans) sufficient to completely destroy injected collagen fibers: 5 laser pulses
Collagen fibers [4]; all rabbits tested (n=3)
  pulses sufficient to destroy the IVIT injected fibers: 3.3+/−1.5 pulses
[5]; 30 days post treatment
  anterior segment 30 days post treatment: normal corneas, eyelids, anterior chamber, conjunctiva and transparent lenses
[5]; [6]
  anterior segment, visual inspection: normal corneas, eyelids, anterior chamber, conjunctiva, and transparent lens
  posterior segment, color fundus imaging: no significant changes or injuries in the posterior segment structure
[5]; post laser treatment
  retinal layers, B-scan OCT: did not indicate structural disorganization in the retinal layers
